Counter-ions that a name gives are not always drawn.
target: T1, protein farnesyltransferase (Rattus norvegicus, UniProt Q02293+Q04631); experiment: in vitro inhibition of protein farnesyltransferase (scintillation proximity assay, biotin-K Ras B fragment); format: biochemical; details: at 1 × 10^-5 M
T1 construct: Rat brain protein farnesyltransferase activity is measured; from tissue; host or cells: rat brain; purified according to Reiss et al., Cell 62:81-88 (1990), steps one through three
Procedure, shortened: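 Rat brain enzyme, purified through three steps, in a scintillation proximity assay kit with biotin-K Ras B fragment substrate at 0.1 mM final. Value is % inhibition of farnesylation.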

SMILES	inhibition at 10 µM [%]
CSCC[C@H](NC(=O)c1ccc(CN[C@H](CC2CCCCC2)[C@H](O)[C@H](O)CC(C)C)cc1-c1ccccc1)C(=O)O [Example 715]	67
CSCC[C@H](NC(=O)c1ccc(CNc2cccc(CC(=O)O)c2)cc1-c1ccccc1)C(=O)O [Example 684]	48
CSCC[C@H](NC(=O)c1ccc(CNc2ccc(I)cc2)cc1-c1ccccc1)C(=O)O [Example 688]	71
COc1ccc(C(=O)Nc2ccc(C(=O)N[C@@H](CCSC)C(=O)O)c(-c3ccccc3)c2)c(O)c1 [Example 758]	46
CSCC[C@H](NC(=O)c1ccc(CNc2ccc(Oc3ccccc3)cc2)cc1-c1ccccc1)C(=O)O [Example 701]	64
CSCC[C@H](NC(=O)c1ccc(CNCc2cc(Cl)cc(Cl)c2)cc1-c1ccccc1)C(=O)O [Example 712]	69

same assay, conditions: at 1 × 10^-6 M

SMILES	% inhibition of farnesyltransferase [%]
CSCC[C@H](NC(=O)c1ccc(COCC2CCOC2)cc1-c1ccccc1)C(=O)O (stereo partly shown) [Example 287]	24
Cc1ccccc1-c1cc(CN(C2CC2)C(C)(C)Cc2ccccc2)ccc1C(=O)N[C@@H](CCS(C)(=O)=O)C(=O)O [Example 319]	98
CSCC[C@H](NC(=O)c1ccc(/C=C/CCc2ccccc2)cc1-c1ccccc1C)C(=O)O [Example 472]	97
CSCC[C@H](NC(=O)c1ccc(CN2CCC[C@H]2COCc2ccccc2)cc1-c1ccccc1C)C(=O)O [Example 824]	90
CSCC[C@H](NC(=O)c1ccc(COCc2ccc(CN(C)C)o2)cc1-c1ccccc1C)C(=O)O [Example 435]	96
CSCC[C@H](NC(=O)c1ccc(C=CCc2ccc3ccccc3c2)cc1-c1ccccc1C)C(=O)O [Example 496]	93
CSCC[C@H](NC(=O)c1ccc(S(=O)(=O)NCCC2CCCCC2)cc1-c1ccccc1C)C(=O)O [Example 772]	79
CSCC[C@H](NC(=O)c1ccc(C[C@H]2CC[C@@H](c3ccccc3)CC2)cc1-c1ccccc1C)C(=O)O [Example 790]	88
CSCC[C@H](NC(=O)c1ccc(/C=C/c2cncnc2)cc1-c1ccccc1C)C(=O)O [Example 494]	96
CSCC[C@H](NC(=O)c1ccc(C=CCCCc2ccccc2)cc1-c1ccccc1C)C(=O)O [Example 480]	87
Cc1ccccc1-c1cc(CN(C)C(C)(C)CC2CCCCC2)ccc1C(=O)N[C@@H](CCS(C)(=O)=O)C(=O)O [Example 314]	97
CSCC[C@H](NC(=O)c1cc(Cc2ccccc2)c(COCc2ccccc2)cc1-c1ccccc1C)C(=O)O [Example 923]	78
Cc1ccccc1-c1cc(CN(C2CC2)C2(CC3CCCCC3)CCCC2)ccc1C(=O)N[C@@H](CCS(C)(=O)=O)C(=O)O [Example 346]	98
CSCC[C@H](NC(=O)c1ccc(-c2ccc(-c3ccccc3)cc2)cc1-c1ccccc1C)C(=O)[O-].[Li+] [Example 788]	44

same assay, conditions: at 1 × 10^-6 M; read-out: % inhibition of farnesyltransferase

SMILES	inhibition at 1 µM [%]
CSCC[C@H](NC(=O)c1ccc(NC(=O)[C@@H]2CSCN2)cc1-c1ccccc1)C(=O)O [Example 165, [4-((R)-thiazolidin-4-ylcarbonyl)amino-2-phenylbenzoyl]methionine]	74
CSCC[C@H](NC(=O)c1ccc(NC[C@@H]2CSCN2)cc1-c1ccccc1)C(=O)O [Example 166, [4-((R)-thiazolidin-4-ylmethyl)amino-2-phenylbenzoyl]methionine hydrochloride]	97
CSCC[C@H](NC(=O)c1ccc(CN(CC23CC4CC(CC(C4)C2)C3)c2ccccc2)cc1-c1ccccc1C)C(=O)O [Example 510]	84
CCSC[C@H](CC1CCCCC1)NCc1ccc(C(=O)N[C@@H](CCSC)C(=O)O)c(-c2ccccc2C)c1 [Example 403, [4-(1-ethylthio-3-cyclohexylprop-2-ylaminomethyl)-2-(2-methylphenyl)benzoyl]methionine]	99
CSCC[C@H](NC(=O)c1ccc(CNc2ccc(C(O)(C(F)(F)F)C(F)(F)F)cc2)cc1-c1ccccc1)C(=O)O [Example 693]	53
CSCC[C@H](NC(=O)c1ccc(NC(=O)c2cnccc2C(F)(F)F)cc1-c1ccccc1C)C(=O)O [Example 481, N-[4-N-(4-trifluoromethylnicotinoyl)amino-2-(2-methylphenyl)benzoyl]methionine lithium salt]	95

same assay, conditions: at 1 × 10^-7 M

SMILES	% inhibition of farnesyltransferase [%]
CSCC[C@H](NC(=O)c1ccc(COCc2cnco2)cc1-c1ccccc1C)C(=O)[O-].[Li+] [Example 891]	94
CSCC[C@H](NC(=O)c1ccc(C=Cc2cncs2)cc1-c1ccccc1C)C(=O)[O-].[Li+] [Example 785]	96
CSCC[C@H](NC(=O)c1ccc(CCc2ccc(Oc3ccccc3)cc2)cc1-c1ccccc1C)C(=O)[O-].[Li+] [Example 462]	91
CSCC[C@H](NC(=O)c1ccc(COCCc2cccc3ccccc23)cc1-c1ccccc1C)C(=O)[O-].[Li+] [Example 592]	93
CSCC[C@H](NC(=O)c1ccc(COCCCCc2ccccc2)cc1-c1ccccc1C)C(=O)O [Example 601]	92
CSCC[C@H](NC(=O)c1ccc(COCc2ccc(Br)o2)cc1-c1ccccc1C)C(=O)[O-].[Li+] [Example 434]	93
CSCC[C@H](NC(=O)c1ccc(COCCc2ccco2)cc1-c1ccccc1C)C(=O)[O-].[Li+] [Example 531]	74
CSCC[C@H](NC(=O)c1ccc(COCc2ccc(C(C)C)cc2)cc1-c1ccccc1C)C(=O)[O-].[Li+] [Example 940]	92
CSCC[C@H](NC(=O)c1ccc(CSc2ccc3ccccc3c2)cc1-c1ccccc1C)C(=O)O [Example 551]	93
C=C(C)C1CC=C(COCc2ccc(C(=O)N[C@@H](CCSC)C(=O)O)c(-c3ccccc3C)c2)CC1 (stereo partly shown) [Example 521]	94
CSCC[C@H](NC(=O)c1ccc(COCc2ccc(-c3ccccc3F)o2)cc1-c1ccccc1C)C(=O)[O-].[Li+] [Example 437]	89

same assay, conditions: at 1 × 10^-8 M

SMILES	% inhibition of farnesyltransferase [%]
CSCC[C@H](NC(=O)c1ccc(CN2CCC[C@H]2COc2ccccc2)cc1-c1ccccc1C)C(=O)O [Example 991]	69
CSCC[C@H](NC(=O)c1ccc(COCc2ccccc2C(C)C)cc1-c1ccccc1C)C(=O)[O-].[Li+] [Example 938]	61
CSCC[C@H](NC(=O)c1ccc(COCc2ccc(-c3ccc(Cl)cc3)o2)cc1-c1ccccc1C)C(=O)NS(=O)(=O)c1ccccc1 [Example 819]	76
COc1cccc(COCc2ccc(C(=O)N[C@@H](CCSC)C(=O)[O-])c(-c3ccccc3C)c2)c1.[Li+] [Example 932]	60
CSCC[C@H](NC(=O)c1ccc(COCCc2ccccc2Cl)cc1-c1ccccc1C)C(=O)[O-].[Li+] [Example 588]	68
CSCC[C@H](NC(=O)c1ccc(COCc2cc(-c3ccc(Cl)cc3)co2)cc1-c1ccccc1C)C(=O)[O-].[Li+] [Example 904]	85
